According to ChEMBL document CHEMBL1201862, “PubChem BioAssay data set” (2004):
Values joined by “and” are separate entries in the source; they are usually repeats but may differ in a detail not shown here. Equal values may be shown once.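 Results reflect a 48-hour exposure of cells in 96-well plates to compound at five concentrations. GI50 is the concentration that inhibits growth by half.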 Active and inactive are the calls of the source. Rule as the data show it: active = GI50 up to about 1.1 µM and inactive = higher.

What was measured:
Experiment in all cases: DTP human tumour cell line panel, 48 h
[1] = system: A549
[2] = system: EKVX
[3] = system: HL-60
[4] = system: HOP-92
[5] = system: HT-29
[6] = system: KM12
[7] = system: LOX IMVI
[8] = system: MDA-N
[9] = system: NCI-H23
[10] = system: NCI-H522
[11] = system: NCI/ADR-RES
[12] = system: OVCAR-3
[13] = system: OVCAR-4
[14] = system: PC-3
[15] = system: RPMI-8226
[16] = system: SK-MEL-28
[17] = system: SK-OV-3
[18] = system: SNB-75
[19] = system: SR
[20] = system: UACC-257

SMILES	GI50 [1]	GI50 [2]	GI50 [3]	GI50 [4]	GI50 [5]	GI50 [6]	GI50 [7]	GI50 [8]	GI50 [9]	GI50 [10]	GI50 [11]	GI50 [12]	GI50 [13]	GI50 [14]	GI50 [15]	GI50 [16]	GI50 [17]	GI50 [18]	GI50 [19]	GI50 [20]
Cc1ccc(-c2c(-c3ccccc3)[nH]c(C)c2C(=O)ONC(=O)c2ccccc2)cc1	2.52 µM (inactive)	7.28 µM (inactive)	0.673 µM (active)	1.67 µM (inactive)	7.83 µM (inactive)	9.68 µM (inactive)	1.75 µM (inactive)	2.35 µM (inactive)	5.53 µM (inactive)	2.31 µM (inactive)	4.65 µM (inactive)	4.49 µM (inactive)	2.72 µM (inactive)	5.92 µM (inactive)	3.46 µM (inactive)	12.1 µM (inactive)	14.4 µM (inactive)	1.92 µM (inactive)	1.66 µM (inactive)	13.7 µM (inactive)
CC(=O)Nc1cc(CN2CCCCC2)c(O)c2ncccc12	32.9 µM (inactive)	30.4 µM (inactive)	14.5 µM (inactive)	49.5 µM (inactive)	44.5 µM (inactive)	23.9 µM (inactive)	20.2 µM (inactive)	42 µM (inactive)	40.7 µM (inactive)	37.3 µM (inactive)	16.2 µM (inactive)	25.8 µM (inactive)	35.2 µM (inactive)	21.6 µM (inactive)	12.1 µM (inactive)	27.3 µM (inactive)	36.5 µM (inactive)		8.75 µM (inactive)	24.7 µM (inactive)
C[C@H]1O[C@@H](O[C@H]2[C@@H](O)C[C@H](O[C@H]3[C@@H](O)C[C@H](O[C@H]4CC[C@@]5(C)[C@H](CC[C@@H]6[C@@H]5CC[C@]5(C)[C@@H](C7=CC(=O)OC7)[C@@H](O)C[C@]65O)C4)O[C@@H]3C)O[C@@H]2C)C[C@H](O)[C@@H]1O [GITOXIN]	0.0719 µM (active)	0.164 µM (active)	0.116 µM (active)	0.402 µM (active)	0.177 µM (active)	0.658 µM (active)	0.215 µM (active)	0.266 µM (active)	0.0869 µM (active)	0.0238 µM (active)	0.197 µM (active)	0.13 µM (active)	0.271 µM (active)	0.259 µM (active)	0.197 µM (active)	1.15 µM (inactive)	0.39 µM (active)	0.703 µM (active)	0.287 µM (active)	0.522 µM (active)
O=C1N/C(=N/N=C\C(O)C(O)C(O)C(O)CO)N/C1=C/c1ccc(Cl)cc1 (stereo not drawn)	> 100 µM (inactive)	> 100 µM (inactive) and 84.5 µM (inactive)	14.4 µM (inactive) and 23.8 µM (inactive)	> 100 µM (inactive)	> 100 µM (inactive)	> 100 µM (inactive)	> 100 µM (inactive)	> 100 µM (inactive)	> 100 µM (inactive)	55.6 µM (inactive) and 58.1 µM (inactive)	> 100 µM (inactive)	43.6 µM (inactive) and 31.6 µM (inactive)	37.2 µM (inactive) and 17.7 µM (inactive)	> 100 µM (inactive)	> 100 µM (inactive)	> 100 µM (inactive)	> 100 µM (inactive)	> 100 µM (inactive)	47.2 µM (inactive)	> 100 µM (inactive)
Cc1cc2c(cc1Cl)SSc1cc(Cl)c(C)cc1S(=O)(=O)Nc1nc(N)nn1C(O)n1nc(N)nc1NS2(=O)=O	> 10 µM (inactive)	> 10 µM (inactive)	> 10 µM (inactive)	> 10 µM (inactive)	> 10 µM (inactive)	> 10 µM (inactive)	> 10 µM (inactive)	> 10 µM (inactive)	> 10 µM (inactive)	> 10 µM (inactive)	> 10 µM (inactive)	> 10 µM (inactive)	> 10 µM (inactive)	> 10 µM (inactive)	> 10 µM (inactive)	> 10 µM (inactive)	> 10 µM (inactive)	> 10 µM (inactive)	> 10 µM (inactive)	> 10 µM (inactive)
C[C@]12CCC(=O)C=C1C[C@@H](O)[C@@H]1[C@@H]2CC[C@@]2(C)[C@H]1CC[C@]2(C)O	> 100 µM (inactive)	> 100 µM (inactive)	> 100 µM (inactive)	> 100 µM (inactive)	> 100 µM (inactive)	> 100 µM (inactive)	> 100 µM (inactive)	> 100 µM (inactive)	> 100 µM (inactive)	> 100 µM (inactive)	> 100 µM (inactive)	> 100 µM (inactive)	> 100 µM (inactive)	> 100 µM (inactive)	> 100 µM (inactive)	> 100 µM (inactive)	> 100 µM (inactive)	> 100 µM (inactive)	> 100 µM (inactive)	> 100 µM (inactive)
COc1ccc2cc(C(=O)NCCCNC(=O)c3ccc4cc(OC)ccc4c3)ccc2c1	> 100 µM (inactive)	49.8 µM (inactive)	> 100 µM (inactive)	14.7 µM (inactive)	> 100 µM (inactive)	> 100 µM (inactive)	> 100 µM (inactive)	> 100 µM (inactive)	> 100 µM (inactive)	> 100 µM (inactive)	> 61.5 µM (inactive)	> 100 µM (inactive)	61 µM (inactive)	> 100 µM (inactive)	> 100 µM (inactive)	> 100 µM (inactive)	31.5 µM (inactive)	17.8 µM (inactive)	> 100 µM (inactive)	> 96.2 µM (inactive)
COc1cc(C2c3cc4c(cc3OC(NNS(=O)(=O)c3ccc(C)cc3)C2C)OCO4)cc(OC)c1OC (stereo not drawn)	2.6 µM (inactive)	2.05 µM (inactive)	0.5 µM (active)	2 µM (inactive)	1.34 µM (inactive)	1.26 µM (inactive)	1.87 µM (inactive)	0.289 µM (active)	4.8 µM (inactive)	1.25 µM (inactive)	3.24 µM (inactive)	1.26 µM (inactive)	7.59 µM (inactive)	1.28 µM (inactive)	2.08 µM (inactive)	2.94 µM (inactive)	4.13 µM (inactive)	3.02 µM (inactive)	0.839 µM (active)	3.21 µM (inactive)
OCC(S)CS.[Bi] (stereo not drawn)	28 µM (inactive)	18 µM (inactive)	16.2 µM (inactive)	23.7 µM (inactive)	19 µM (inactive)	19.1 µM (inactive)	20.7 µM (inactive)	14.1 µM (inactive)	17.1 µM (inactive)	1.58 µM (inactive)	36.1 µM (inactive)	10.8 µM (inactive)	23.6 µM (inactive)	13.1 µM (inactive)	2.93 µM (inactive)	12 µM (inactive)	31.6 µM (inactive)	11.1 µM (inactive)	4.06 µM (inactive)	13 µM (inactive)
O=[N+]([O-])CC(SCc1ccccc1)c1ccc2c(c1)OCO2 (stereo not drawn)	7.67 µM (inactive)	20.2 µM (inactive)	1.58 µM (inactive)	3.79 µM (inactive)	2.61 µM (inactive)	6.84 µM (inactive)	1.56 µM (inactive)	2.45 µM (inactive)	7.19 µM (inactive)	11.5 µM (inactive)	9.57 µM (inactive)	6.12 µM (inactive)	13.2 µM (inactive)	16.8 µM (inactive)	1.57 µM (inactive)	5.82 µM (inactive)	15.1 µM (inactive)	15.1 µM (inactive)	3.13 µM (inactive)	6.79 µM (inactive)
c1ccc(CN2CCC(=NN3CCCCC3)CC2)cc1	> 100 µM (inactive)	> 100 µM (inactive)	20.1 µM (inactive)	16.2 µM (inactive)	32.4 µM (inactive)	78.3 µM (inactive)	70.6 µM (inactive)	83 µM (inactive)	78.2 µM (inactive)	54.6 µM (inactive)	> 100 µM (inactive)	44.2 µM (inactive)	> 100 µM (inactive)	54.8 µM (inactive)	27.7 µM (inactive)	> 100 µM (inactive)	> 100 µM (inactive)	61.2 µM (inactive)	34.4 µM (inactive)	47.1 µM (inactive)
O=C(Cc1ccc(Cl)c(Cl)c1)NCCCN1CCN(CCCN2CCCCC2)CC1	20.6 µM (inactive)	19.2 µM (inactive)	17.8 µM (inactive)	11.1 µM (inactive)	10.8 µM (inactive)	15.8 µM (inactive)	14.1 µM (inactive)	2.45 µM (inactive)	19.8 µM (inactive)	15.7 µM (inactive)	> 100 µM (inactive)	25.5 µM (inactive)	37.8 µM (inactive)	18.5 µM (inactive)	2.71 µM (inactive)	2.56 µM (inactive)	19.2 µM (inactive)	19.5 µM (inactive)	11.7 µM (inactive)	5.26 µM (inactive)
O=[N+]([O-])C(/C=C(\Cl)[N+](=O)[O-])=C(N1CCCCC1)N1CCCCC1	15.6 µM (inactive)	> 100 µM (inactive)	20.1 µM (inactive)	> 100 µM (inactive)	31.3 µM (inactive)	> 100 µM (inactive)	55.7 µM (inactive)	22.4 µM (inactive)	32.9 µM (inactive)	58.6 µM (inactive)	26.9 µM (inactive)	27.5 µM (inactive)	23.9 µM (inactive)	39.6 µM (inactive)	30.8 µM (inactive)	70.8 µM (inactive)	> 100 µM (inactive)		14.1 µM (inactive)	25.3 µM (inactive)
